What was measured:
[1] = biological target: Neuronal acetylcholine receptor; test: Binding affinity for Nicotinic acetylcholine receptor site in rat cortex was determined using [3H]MCC as radioligand
[2] = biological target: Muscarinic acetylcholine receptor; test: Binding affinity for muscarinic receptor site in rat hippocampus was determined using competitive radioligand binding assays employing [3H]OXO-M; type: tissue-based
[3] = Selectivity for nicotinic agonist activity was determined between Ki for [3H]-OXO-M and to that for [3H]MCC; type: functional
[4] = organism: Rattus norvegicus; test: (§1) Effect of compound on accumulation of homovanillic acid (HVA) in nucleus accumbens; type: functional
[5] = organism: Rattus norvegicus; test: (§2) Effect of compound on accumulation of dopamine metabolite dihydroxyphenyl acetic acid (DOPAC) in rat striatum; type: functional
[6] = organism: Rattus norvegicus; test: (§3) Effect of compound on accumulation of dopamine metabolite dihydroxyphenyl acetic acid (DOPAC) in nucleus accumbens; type: functional
[7] = organism: Rattus norvegicus; test: as §2; type: functional, organism-based
[8] = organism: Rattus norvegicus; test: (§4) Effect of compound on accumulation of homovanillic acid (HVA) in rat striatum; type: functional, organism-based
[9] = organism: Rattus norvegicus; test: as §3; type: functional, organism-based
[10] = organism: Rattus norvegicus; test: as §1; type: functional, organism-based
[11] = organism: Rattus norvegicus; test: as §4; type: functional

## COC(=O)C1=CCCN(C)C1 [ARECOLINE]
[1]
  Ki: 224 nM

## CN1CCC=C(C(=O)Cc2ccccc2)C1
[1]
  Ki: 123 nM
[2]
  Ki: 1885 nM
[3]
  Selectivity: 15

## CCCCC(=O)C1=CCCN(C)C1
[1]
  Ki: 61.3 nM
[2]
  Ki: 1385 nM
[3]
  Selectivity: 23

## CN1CC=C(C(=O)C(C)(C)C)CC1
[1]
  Ki: 56.7 nM
[2]
  Ki: 6250 nM
[3]
  Selectivity: 110

## CC(=O)C1=CCN(C)CC1
[1]
  Ki: 48.4 nM
[2]
  Ki: 5425 nM
[3]
  Selectivity: 112

## CN1CCC[C@H]1c1cccnc1 [NICOTINE]
[4]
  Control: 157%
[5]
  Control: 140%
[6]
  Control: 144%
[7]
  Concentration: 2.18 nM/g
[8]
  Concentration: 134 nM/g
[9]
  Concentration: 2 nM/g
[10]
  Concentration: 0.86 nM/g
[11]
  Control: 151%

## CCCCC(=O)C1=CCN(C)CC1
[1]
  Ki: 149 nM
[2]
  Ki: 4345 nM
[3]
  Selectivity: 29

## CN1CC=C(C(=O)c2ccccc2)CC1
[1]
  Ki: 766 nM
[2]
  Ki: 3750 nM
[3]
  Selectivity: 5

## CCC(=O)C1=CCN(C)CC1
[1]
  Ki: 25.7 nM
[2]
  Ki: > 5000 nM
[3]
  Selectivity: > 195

## CCC(=O)C1=CCCN(C)C1 [ARECOLON]
[1]
  Ki: 5.8 nM
[2]
  Ki: 1950 nM
[3]
  Selectivity: 336

## CC#CC(=O)C1=CCCN(C)C1
[1]
  Ki: 5.8 nM
[4]
  Control: 159%
[5]
  Control: 115%
[6]
  Control: 129%
[2]
  Ki: 1650 nM
[7]
  Concentration: 1.8 nM/g
[8]
  Concentration: 1.21 nM/g
[9]
  Concentration: 1.79 nM/g
[3]
  Selectivity: 284
[10]
  Concentration: 0.88 nM/g
[11]
  Control: 135%

## CC#CC(=O)C1=CCN(C)CC1
[1]
  Ki: 22 nM
[4]
  Control: 132%
[5]
  Control: 123%
[6]
  Control: 120%
[2]
  Ki: 2690 nM
[7]
  Concentration: 1.91 nM/g
[8]
  Concentration: 1.25 nM/g
[9]
  Concentration: 1.66 nM/g
[3]
  Selectivity: 122
[10]
  Concentration: 0.73 nM/g
[11]
  Control: 140%

## CN1CCC=C(C(=O)c2ccccc2)C1
[1]
  Ki: 178 nM
[2]
  Ki: 2450 nM
[3]
  Selectivity: 14

## CN1CC=C(C(=O)Cc2ccccc2)CC1
[1]
  Ki: 946 nM
[2]
  Ki: 3500 nM
[3]
  Selectivity: 4

## CCCC(=O)C1=CCCN(C)C1
[1]
  Ki: 13.1 nM
[2]
  Ki: 2730 nM
[3]
  Selectivity: 208

## CC(=O)C1=CCCN(C)C1
[1]
  Ki: 32.7 nM
[2]
  Ki: 4380 nM
[3]
  Selectivity: 134

## CCCC(=O)C1=CCN(C)CC1
[1]
  Ki: 67.3 nM
[2]
  Ki: > 5000 nM
[3]
  Selectivity: > 74

From ChEMBL document CHEMBL1127247, “Isoarecolones and arecolones: selective central nicotinic agonists that cross the blood-brain barrier” (Bioorg Med Chem Lett, 1994)
